Assay results from patent US20090098226A1, “COMPOSITION FOR COSMETIC OR PHARMACEUTICAL-DERMATOLOGICAL USE” (priority 2006, published 2009).

How the values were obtained:
COX2 [1] = assay: Test 3: COX2 expression after oxidative insult (previous test repeated, 3 hours and 24 hours); assay type: cell-based, human
Experimental: (§1) Tests on the capacity of the indicated preparations to prevent oxidative damage, induced in dermal tissue cells, were conducted on human fibroblasts which were isolated then cultivated in a suitable culture medium. Oxidative stress was induced by adding a mixture of 40 mM xanthine and 2 mM hypoxanthine to the culture medium, a mixture with known ability to induce formation of Reactive Oxygen Species (ROS), agents which cause cell damage up to necrosis. The preparations under examination could be added, or not, to the broth at the same time as the xanthine/hypoxanthine mixture. The contact time between the xanthine/hypoxanthine mixture and the preparations was 2 hours, at the end of which the cells were transplanted into a fresh culture medium, i.e. containing neither the stress-inducing mixture nor the substance, then allowed to quiesce for periods of 3 or 24 hours. At the end of the stated period, gene expression of the prostaglandin G/H synthase and cyclooxygenase2 (COX2) enzyme was detected which is indicative of the inflammatory state induced in cells by oxidative stress.

COX2 [2] = assay: Test 2: COX2 expression in human fibroblasts after xanthine/hypoxanthine oxidative stress; assay type: cell-based; conditions: 24 hours after oxidative stress, insulted human fibroblasts
Experimental: as §1
Expression of COX2 (normalized fluorescence units vs housekeeping gene 18s rRNA) 24 hours after oxidative stress, in “insulted” cells in the presence of curcumin, curcumin complexed with Zn and FDP used separately, and in the presence of the ternary system.

## COc1cc(/C=C/C(=O)CC(=O)/C=C/c2ccc(O)c(OC)c2)ccc1O [curcumin, Curcumin]
COX2 [1]; 3 μM, 3 hours
  COX2 expression after oxidative insult: 5.76 normalized fluorescence units vs housekeeping gene 18s rRNA
COX2 [1]; 3 μM, 24 hours
  COX2 expression after oxidative insult: 5.00 normalized fluorescence units vs housekeeping gene 18s rRNA
COX2 [1]; 6 μM, 3 hours
  COX2 expression after oxidative insult: 5.45 normalized fluorescence units vs housekeeping gene 18s rRNA
COX2 [1]; 6 μM, 24 hours
  COX2 expression after oxidative insult: 4.90 normalized fluorescence units vs housekeeping gene 18s rRNA
COX2 [1]; 9 μM, 3 hours
  COX2 expression after oxidative insult: 5.10 normalized fluorescence units vs housekeeping gene 18s rRNA
COX2 [1]; 9 μM, 24 hours
  COX2 expression after oxidative insult: 4.78 normalized fluorescence units vs housekeeping gene 18s rRNA
COX2 [2]; 3 μM
  Expression of COX2: 5.00 normalized fluorescence units vs housekeeping gene 18s rRNA
COX2 [2]; 6 μM
  Expression of COX2: 4.90 normalized fluorescence units vs housekeeping gene 18s rRNA

## C[C@H]1[C@H](C)CC[C@]2(C)CC[C@]3(C)C(=CC[C@@H]4[C@@]5(C)CC[C@@H](O)[C@](C)(C(=O)O)[C@@H]5CC[C@]43C)[C@H]12 [boswellic acid]
COX2 [1]; 100 μM, 3 hours
  COX2 expression after oxidative insult: 7.80 normalized fluorescence units vs housekeeping gene 18s rRNA
COX2 [1]; 100 μM, 24 hours
  COX2 expression after oxidative insult: 8.00 normalized fluorescence units vs housekeeping gene 18s rRNA
COX2 [1]; 300 μM, 3 hours
  COX2 expression after oxidative insult: 8.10 normalized fluorescence units vs housekeeping gene 18s rRNA
COX2 [1]; 300 μM, 24 hours
  COX2 expression after oxidative insult: 8.90 normalized fluorescence units vs housekeeping gene 18s rRNA

## O=P(O)(O)OC[C@H]1O[C@@](O)(COP(=O)(O)O)[C@@H](O)[C@@H]1O [FDP, Fructose 1-6 diphosphate]
COX2 [1]; 5 mM, 3 hours
  COX2 expression after oxidative insult: 7.87 normalized fluorescence units vs housekeeping gene 18s rRNA
COX2 [1]; 5 mM, 24 hours
  COX2 expression after oxidative insult: 7.14 normalized fluorescence units vs housekeeping gene 18s rRNA
COX2 [1]; 10 mM, 3 hours
  COX2 expression after oxidative insult: 6.90 normalized fluorescence units vs housekeeping gene 18s rRNA
COX2 [1]; 10 mM, 24 hours
  COX2 expression after oxidative insult: 6.45 normalized fluorescence units vs housekeeping gene 18s rRNA
COX2 [2]; 5 mM
  Expression of COX2: 7.14 normalized fluorescence units vs housekeeping gene 18s rRNA
